# Results from US20070142480A1, “Alleviation of pain in osteoarthritis by means of intra-articular implantation of perfluorodecalin” (priority 2005, published 2007).
# Assays:
# [1] = system: patients with symptomatic knee OA; test: single group, open-label study of weekly intra-articular injections in outpatients with symptomatic knee OA; format: in vivo, human; settings: for WOMAC score: baseline 5±2, p<0.001
# Description: The efficacy of treatment was determined by a validated clinical test method and side effects recorded. This was a single group, open-label study, including outpatients of both sexes, aged between 18 and 85 years, with symptomatic knee OA. All patients (25) underwent weekly intra-articular injections of perfluorodecalin for 5 consecutive weeks and were followed-up for 10 additional weeks. The safety and tolerability profile (primary end-point) was assessed by adverse event reporting. The secondary endpoint was efficacy evaluated by changes in the Western Ontario and McMaster Universities (WOMAC) score vs. baseline. Patient and physician satisfaction were also recorded.
# [2] = cited from earlier work
# [3] = cited from earlier work; remark: listed apart in the source
compound,measurement,setting,value
FC1(F)C(F)(F)C(F)(F)C2(F)C(F)(F)C(F)(F)C(F)(F)C(F)(F)C2(F)C1(F)F (centres unmarked) [Perfluorodecalin],serious treatment-related adverse events,"[1]; 25 patients, 5 weekly intra-articular injections, 10 additional weeks follow-up",no serious treatment-related adverse events were reported
same,most frequent adverse event: pain at the injection site,"[1]; 25 patients, weekly intra-articular injections for 5 consecutive weeks",10 % of the injections
same,"duration of relief of pain, on average",[1]; after intra-articular injection,one week
same,carry-over effect after the last injection,[1]; based on sustained improvements in WOMAC score and subscores,at least 3 weeks
same,WOMAC score,"[1]; end of the injection series, week 6",2±1.5
same,WOMAC subscore 'pain',[1]; from week 4,significantly reduced
same,WOMAC subscore 'physical function',[1]; from week 6,significantly reduced
same,WOMAC subscore 'stiffness',[1]; from week 6,significantly reduced
same,safety and tolerability profile,"[1]; intra-articular, adverse event reporting",generally well tolerated
same,WOMAC score,[1]; within the first 2 weeks of treatment,3±2
same,solubility in water and in traditional organic solvents,[2],insoluble
same,Vapor pressure at 37° C.,[3]; 37° C.,14 mm Hg
same,CO2 solubility,[3],1400 mL/L
same,O2 solubility,[3],490 mL/L
